The values below are quoted from earlier work in patent US4834966A, “Pharmaceutical composition with analgesic activity” (priority 1986, dated 1989).

Structures are written as SMILES.

For data set [1] the following is noted: background statement.
The subject of data set [2] is gastrointestinal and oral mucosa. To be noted: background statement.

For `CC(C)Cc1ccc(C(C)C(=O)[O-])cc1.[Na+]` (centres unmarked) [Ibuprofen sodium salt], the solubility in water entry in data set [1] was “good solubility in water”. For the same compound, the “gastrointestinal effect of solution pH” value in data set [2] is listed as “gives solutions having a pH which produces gastrointestinal damages”.
